{
  "source": "patent US5298494A",
  "about": "“Monosaccharides having anti-proliferation and anti-inflammatory activity, compositions and uses thereof” (Greenwich Pharmaceuticals Incorporated, priority 1993, dated 1994)",
  "system": "PGE2 production by BUD-8 skin cell fibroblasts",
  "assay": "PGE2 production by BUD-8 skin cell fibroblasts (radioimmunoassay)",
  "type": "cell-based, human",
  "method": "The effect of the compound of the present invention on the proliferative capacity of human BUD-8 skin fibroblasts was measured with the use of a ^3 H-thymidine incorporation assay using culture conditions which were similar to those used for a Con-A blastogenesis assay, described previously. Cultured skin cells were detached from the surface of tissue culture flasks mechanically with a Teflon scraper. The cells were washed, resuspended in incubation medium and the viabilities were determined. These cells were then plated in triplicate at a density of 2×10^3 cells/0.1 ml/microtiter well for the proliferation assay and a density of 1×10^4 cells/0.1 ml/microtiter well for the assays to quantitate PGE2 and LTB4. To these cells was added incubation medium containing indomethacin to inhibit prostaglandin production, or nordihydroguaiaretic acid (NDGA) to inhibit leukotriene production (positive controls).\nAfter 18 hours of culture, samples of the BUD-8 skin cell supernatants were collected from one set of microtiter plates and frozen until assayed for PGE2 or for LTB4 content using the radioimmunoassays described below.\nA radioinmunoassay (New England Nuclear) was used to quantitate PGE2 levels in BUD-8 skin cell culture supernatants. Briefly, into each polypropylene tube were mixed 0.1 ml anti-PGE2, 0.1 ml ^125 1-PGE2 and 0.1 ml PGE2 standard or PGE2 containing sample. The BUD-8 skin culture supernatants were diluted 1:2 prior to addition to the radioimmunoassay. Tubes were refrigerated overnight. A polyethylene glycol solution (16%, 6,000 m.w.) was then added to precipitate immune complexes and the radioactivity in the precipitate was counted in a gamma counter.",
  "data": [
    {"smiles": "CCCCCCCOCCCO[C@@H]1[C@H]2OC(C)(C)O[C@H]2O[C@@H]1[C@H](O)CO", "note": "[IIg]", "values": [
      {"measurement": "PGE2 in supernatant", "setting": "1 ug/ml", "result": "5.2 ± 0.9 pg PGE2 /50 ul supernatant"},
      {"measurement": "calculated PGE2 produced/10^5 BUD-8 cells", "setting": "1 ug/ml", "result": 157, "unit": "pg per 10^5 cells"},
      {"measurement": "PGE2 in supernatant", "setting": "10 ug/ml", "result": "5.6 ± 0.4 pg PGE2 /50 ul supernatant"},
      {"measurement": "calculated PGE2 produced/10^5 BUD-8 cells", "setting": "10 ug/ml", "result": 173, "unit": "pg per 10^5 cells"},
      {"measurement": "PGE2 in supernatant", "setting": "25 ug/ml", "result": "4.1 ± 0.3 pg PGE2 /50 ul supernatant"},
      {"measurement": "calculated PGE2 produced/10^5 BUD-8 cells", "setting": "25 ug/ml", "result": 111, "unit": "pg per 10^5 cells"},
      {"measurement": "PGE2 in supernatant", "setting": "100 ug/ml", "result": "11.0 ± 1.4 pg PGE2 /50 ul supernatant"},
      {"measurement": "calculated PGE2 produced/10^5 BUD-8 cells", "setting": "100 ug/ml", "result": 388, "unit": "pg per 10^5 cells"},
      {"measurement": "PGE2 in supernatant", "setting": "300 ug/ml", "result": "19.6 ± 1.6 pg PGE2 /50 ul supernatant"},
      {"measurement": "calculated PGE2 produced/10^5 BUD-8 cells", "setting": "300 ug/ml", "result": 731, "unit": "pg per 10^5 cells"},
      {"measurement": "PGE2 in supernatant", "setting": "750 ug/ml", "result": "7.3 ± 0.2 pg PGE2 /50 ul supernatant"},
      {"measurement": "calculated PGE2 produced/10^5 BUD-8 cells", "setting": "750 ug/ml", "result": 241, "unit": "pg per 10^5 cells"},
      {"measurement": "inhibition at 1 µg/mL", "setting": "Homo sapiens, Fibroblast, 18 h, 1 ug/ml, read-out: % Effect on PGE2 production", "result": 45, "unit": "%"},
      {"measurement": "inhibition at 10 µg/mL", "setting": "Homo sapiens, Fibroblast, 18 h, 10 ug/ml, read-out: % Effect on PGE2 production", "result": 40, "unit": "%"},
      {"measurement": "inhibition at 25 µg/mL", "setting": "Homo sapiens, Fibroblast, 18 h, 25 ug/ml, read-out: % Effect on PGE2 production", "result": 57, "unit": "%"},
      {"measurement": "inhibition at 100 µg/mL", "setting": "Homo sapiens, Fibroblast, 18 h, 100 ug/ml, read-out: % Effect on PGE2 production", "result": -17, "unit": "%"},
      {"measurement": "inhibition at 300 µg/mL", "setting": "Homo sapiens, Fibroblast, 18 h, 300 ug/ml, read-out: % Effect on PGE2 production", "result": -108, "unit": "%"},
      {"measurement": "inhibition at 750 µg/mL", "setting": "Homo sapiens, Fibroblast, 18 h, 750 ug/ml, read-out: % Effect on PGE2 production", "result": 22, "unit": "%"}
    ]}
  ]
}
